The source of these data is patent US20260174829A1, “METHODS OF REDUCING TYPE 2 CYTOKINE-MEDIATED INFLAMMATION USING NEUROMEDIN PEPTIDES” (Rutgers, The State University of New Jersey, priority 2018, published 2026).

One test has as its system lung ILC2s. Put plainly: Sort-purified lung ILC2 in vitro cultures with Nmb, IL-5/IL-13 ELISA. The format is cell-based, mouse. How it is done:
FIGS. 6A-6E. Nmb suppresses type 2 cytokine responses. (A), Nb-infected mice were treated with PBS or Nmb (i.t.) and ILC2s in the BAL were quantified. (B) Expression of IL-5 and IL-13 in the lungs of PBS or Nmb-treated mice was determined on day 7 post-Nb by Real-time PCR. (C) Eosinophils in the BAL were quantified and (D) worm burdens were determined on day 7 post-Nb infection. ILC2s were sort-purified from the lungs of control or baso-dep mice on day 7 post-Nb and cultured (O/N) with IL-2 and IL-7 in the presence or absence of Nmb and (E) IL-5 and IL-13 levels in culture supernatants were determined by ELISA. P values were determined by two-tailed Student's t-tests.
FIGS. 10A-10B. NMB inhibits type 2 cytokine production from IL-33 activated ILC2. ILC2s were sort-purified from the lungs of Nb-infected mice (day 7) and cultured with survival cytokines (IL-2, IL-7) and in the presence or absence of Nmb and/or IL-33. Following overnight culture, supernatants were tested for the presence of IL-5 (FIG. 10A) and IL-13 (FIG. 10B) by standard ELISA. Statistical comparisons were done using a Student's t-test.
Lung cells were isolated from the lungs of WT or basophil-depleted mice on day 7 post-N. brasiliensis infection. ILC populations (CD45^+Lin^−CD90^+CD127^+) were sort-purified and 10,000 cells were cultured in the presence of 100 ng/mL of IL-2, IL-7 and vehicle (PBS) or 10 μg/mL of Neuromedin B for 24 hours. IL-5 and IL-13 were quantified in cell-free supernatants by ELISA.
These studies illustrate that Nb-induced ILC2 responses are exaggerated in the absence of basophils. […] However, ILC2 responses are also known to be regulated by several other factors following a Nb challenge. Specifically, IL-33 is reported to be a critical regulator of lung ILC2 responses post-Nb infection (24). To address whether altered ILC2 activity in the absence of basophils is a result of reduced availability of IL-33, rather than alterations in NMB-NMBR signaling pathways, ILC2s were sort-purified from the lungs of Nb-infected mice (day 7) and cultured with survival cytokines (IL-2, IL-7) and/or IL-33 and NMB. Following overnight culture, supernatants were tested for the presence of IL-5 and IL-13 by standard ELISA. Statistical comparisons were done using a Student's t-test.
For orientation: In an ELISA, binding on a coated surface is turned into a signal by an enzyme label.

A further test relates to NMBR expression by ILC2s. Put plainly: NMBR expression by cultured lung ILC2s, flow cytometry. The format is cell-based, mouse. Conditions: ILC2s day 7 post-Nb, survival and/or activating cytokines, day 4 post-culture. The source says:
FIG. 9. Basophils regulate NMBR expression. ILC2s were sort-purified from the lung of Nb-infected mice (day 7) and stimulated with survival cytokines (IL-7 and IL-2) and also with activated basophils, IL-4 or IL-33 overnight. NMBR expression was monitored by flow cytometric analysis post-culture. Data are presented as […] mean fluorescent intensity (GMFI). Statistical comparisons were done using a Student's t-test.
FIG. 14. Prostaglandin E2 upregulates expression of NMBR on lymphocytes. Lung ILC2s were sort-purified from the lungs of mice on day 7 post-Nb and cultured with a combination of survival cytokines (IL-2 and IL-7) and/or activating cytokines (IL-25 and IL-33). In addition, cultures were treated with NMB or prostaglandin E2 (PGE2) and the expression of NMBR was measured by flow cytometric analysis on day 4 post-culture. Statistical analysis was performed using a student's t-test. Negative NMBR staining as determined by an isotype control antibody is also shown (Isot).
NMBR expression by lung ILC2s was reduced when basophils are depleted following an Nb infection. To determine whether basophils directly mediate expression of NMBR or whether they operate through intermediate pathways, ILC2s were sort-purified from the lungs of Nb-infected mice (day 7) and cultured with the survival cytokines IL-2 and IL-7. Additionally, the ILC2s were cultured with activated basophils, IL-4, or IL-33 overnight. NMBR expression was subsequently monitored by flow cytometric analysis post-culture.
To better determine the mechanisms through which basophils regulate expression of NMBR on lymphocytes, ILC2s were cultured with a combination of survival and activating cytokines in the presence or absence of NMB or prostaglandin E2 (PGE2).
(Flow cytometry measures light scatter and fluorescence of single cells or particles in a stream.)

The mark [1] stands for this setting: ILC2s day 7 post-Nb, IL-2 and IL-7, overnight, no IL-33, ELISA.
Setting [2] is: ILC2s from basophil-deficient Nb-infected mice, overnight with IL-2 and IL-7, ELISA.
[3] abbreviates: ILC2s from basophil-sufficient Nb-infected mice, overnight with IL-2 and IL-7, ELISA.

As for H2N-GNLWATGHFM-amide [Nmb], in the test on lung ILC2s (ILC2s day 7 post-Nb, IL-2, IL-7 and IL-33, overnight, ELISA), the “type 2 cytokines (IL-5 and IL-13) from IL-33 activated ILC2s” value is “significant reductions”. In addition, in the test on lung ILC2s (setting [1]), the “IL-5 production from ILC2s at steady-state” value is listed as “significantly reduce” and the “IL-13 production from ILC2s at steady-state” value is reported as “significantly reduce”. In addition, in the test with lung ILC2s (setting [2]), the “IL-5 production by ILC2s (significantly reduced or not)” value is given as “not” and the “IL-13 production by ILC2s (significantly reduced or not)” value was “not”. Moreover, in the test on lung ILC2s (setting [3]), the “IL-5 production by ILC2s” value is “significantly reduced” and the “IL-13 production by ILC2s” value is on record as “significantly reduced”. Moreover, the “NMBR expression by ILC2s” value in the test on NMBR expression by ILC2s was “failed to upregulate”.
